Experimental data: patent publication US20240252586A1, “ENGINEERED ANTIMICROBIAL PEPTIDES AND USAGE THEREOF” (priority 2021, published 2024)
Where “and” joins values, the source holds several entries; their conditions need not be identical. Equal values may be shown once. Read-outs that look alike come from different tables or passages of the source. Where no end group is shown, it is not given here.

How the values were obtained:
S. aureus NRS 384 [1] = system: S. aureus NRS 384
Description: (§1) SEQ ID NO: 1 stocks were made at 5.12 mg/mL in water adjusted to pH of 5.0 with 1% glacial acetic acid.
(§2) The test organisms (Table 7) consisted of clinical isolates from the Micromyx (MMX) repository, a reference isolate from the American Type Culture Collection (ATCC, Manassas, VA) and the Centers for Disease Control (CDC, Atlanta GA). Upon initial receipt, the isolates were streaked under suitable conditions onto agar medium appropriate to each organism. The organisms were incubated for 18-24 hr at 35° C. in ambient atmosphere. Colonies harvested from these growth plates were resuspended in the appropriate medium containing a cryoprotectant. Aliquots of each suspension were then stored frozen at −80° C. Prior to testing, all organisms were cultured onto trypticase soy agar containing 5% sheep blood. The agar plates were incubated as described above.
(§3) The Test media used for MIC and FIC were testing were cation-adjusted Mueller-Hinton broth (CAMHB) and Roswell Park Memorial Institute (RPMI-1640), buffered with 3-(N-morpholino)propanesulfonic acid (MOPS). Each test media was supplemented with 0.002% Tween-80 (P-80) prior to testing.
(§4) MIC assay plates were prepared for broth microdilution in accordance with guidelines from the Clinical and Laboratory Standards Institute (CLSI); automated liquid handlers (Biomek 3000 and Biomek FX) and multi-channel pipettes were used to conduct serial dilutions and liquid transfers. MIC assay plates were prepared using a 96-well, deep-well microdilution plate that mimicked the layout of the daughter plates.
(§5) For the mother plate, wells across the standard 96-well microdilution plate were filled with 150 μL of sterile saline 0.002% P-80 in columns 2 through 12. […] The Biomek 300 was used to make eleven 2-fold serial dilutions horizontally across each row of the plate from columns 2 through 11. The Biomek FX was then used to transfer 5 μL of the SEQ ID NO: 1 and saline 0.002% P-80 to the daughter plates.
(§6) A standardized inoculum of each organism was prepared per CLSI methods. Suspensions were prepared to equal a 0.5 McFarland standard followed by a 1:10 dilution into test medium. The inocula were dispensed into sterile reservoirs divided by length and the Biomek 3000 was used to inoculate the plates. Daughter plates were placed on the Biomek 3000 work surface in reverse orientation so that inoculation took place from low to high drug concentration. The Biomek 3000 delivered 10 μL of the diluted suspension into each well. These inoculations yielded a final cell concentration in the daughter plates of approximately 5×10^5 CFU/mL in each well. Plates were incubated at 35° C. for 16-20 hr. The microplates were viewed from the bottom using a plate viewer and the MIC was recorded as the lowest concentration of drug that inhibited visible growth of the organism.

S. epidermidis MMX 3628 = system: S. epidermidis MMX 3628
Description: as §1, §2, §3, §4, §5, §6

E. Coli CDC 0451 [2] = system: E. Coli CDC 0451
Description: as §1, §2, §3, §4, §5, §6

S. aureus NRS 382 = system: S. aureus NRS 382
Description: as §1, §2, §3, §4, §5, §6

S. aureus ATCC 29213 = system: S. aureus ATCC 29213
Description: as §1, §2, §3, §4, §5, §6

P. aeruginosa ATCC 27853 = system: P. aeruginosa ATCC 27853
Description: as §1, §2, §3, §4, §5, §6

P. aeruginosa CDC 0509 = system: P. aeruginosa CDC 0509
Description: as §1, §2, §3, §4, §5, §6

S. epidermidis MMX 5129 = system: S. epidermidis MMX 5129
Description: as §1, §2, §3, §4, §5, §6

S. aureus NRS 384 [3] = system: S. aureus NRS 384; remark: listed apart in the source
Description: (§7) Base test media for the TK assay were phosphate-buffered saline (PBS), water, and cation-adjusted Mueller-Hinton broth (CAMHB), all adjusted to pH 7.4 with sodium hydroxide (NaOH) or hydrochloric acid (HCl) and then filter-sterilized.
(§8) Double strength (2×) Dey/Engley neutralizing broth (D/E) was used as a neutralizer for dilution and plating during determination of CFU/mL at each TK assay time point. Track plating was conducted on TSAB for Staphylococcus aureus NRS382 and on TSA without sheep's blood for all other organisms. TSA was used for spread plate enumeration of CFU/mL during a pilot study testing toxicity of D/E to bacteria and neutralization of SEQ ID NO: 1 in D/E.
(§9) Drug stocks of 5120 μg/mL in water at pH 5 were diluted in PBS pH-7.4 to 100× the final concentrations desired for each TK assay and frozen at −20° C. until use.
(§10) The TK test panel was prepared in a 96-well deep well plate, where 890 μL of each test media and 10 μL of 100× drug stocks were added to the appropriate wells. A growth control containing no drug was included, where 10 μl of PBS (pH 7.4) was added in place of drug.
(§11) A cell suspension was prepared from growth of a freshly streaked plate equivalent to the turbidity of a 0.5 McFarland standard in PBS at (pH 7.4). Deep-well test panels prepared as described above were inoculated with 100 μL of the 0.5 McFarland cell suspension, targeting a final inoculum of approximately 1 to 2×10^7 CFU/mL. During the TK assay, the 96 deep-well plate was left on the bench top at room temperature.
(§12) Aliquots of 100 μL were removed from the test panel immediately (0 minutes), and at 2.5, 5, 10, 15, and 30 minutes, and mixed with 100 μL 2×D/E to neutralize the rapid bactericidal activity of SEQ ID NO: 1. Cells were then serially diluted ten-fold in 2× Dey/Engley broth four times yielding a dilution series ranging from 2 to 2×10-4. Ten microliters from each step of the dilution series were track-plated in duplicate on TSA to enumerate viable counts (CFU/mL). Plates were then incubated at 35° C. overnight.
(§13) The resulting colonies were counted, and viable counts (CFU/mL) were determined from the average count of the duplicate plates. The limit of detection (LOD) for the assay was 100 CFU/mL. The LOD reflects the average CFU/ml if just one colony grew from the least diluted sample (DF=2) between the two track plate replicates, where 10 μL had been plated. Log-transformed viable counts (log10 CFU/mL) were then plotted vs. time.

E. Coli CDC 0451 [4] = conditions: 1× MIC, PBS, without sodium bicarbonate
Description: as §7, §8, §9, §10, §11, §12, §13

5 test isolates = conditions: PBS and H2O, 1× and 0.5× MIC, all evaluated organisms
Description: as §7, §8, §9, §10, §11, §12, §13

S. epidermidis MMX 8655 = conditions: by […]; 1× MIC; PBS and H2O
Description: as §7, §8, §9, §10, §11, §12, §13

Sequence: RRWVRRVRRVWRRVVRVVRRWVRR [SEQ ID NO: 1]
- MIC (S. aureus NRS 384 [1]; CAMHB): 4 µg/mL
- MIC (S. aureus NRS 384 [1]; RPMI): 0.5 µg/mL
- MIC (S. epidermidis MMX 3628; CAMHB): 0.25 µg/mL
- MIC (S. epidermidis MMX 3628; RPMI): 0.12 µg/mL
- MIC (E. Coli CDC 0451 [2]; CAMHB): 1 µg/mL and 2 µg/mL
- MIC (E. Coli CDC 0451 [2]; RPMI): 0.5 µg/mL
- MIC (S. aureus NRS 382; RPMI): 0.5 µg/mL
- MIC (S. aureus NRS 382; stated in FIG. 2 legends (time-kill), printed S. aureus NRS 382): 8 µg/mL
- MIC (S. aureus ATCC 29213; CAMHB): 4 µg/mL
- MIC (S. aureus ATCC 29213; RPMI): 0.5 µg/mL
- MIC (P. aeruginosa ATCC 27853; CAMHB): 8 µg/mL
- MIC (P. aeruginosa ATCC 27853; RPMI): 2 µg/mL
- MIC (P. aeruginosa CDC 0509; CAMHB): 8 µg/mL
- MIC (P. aeruginosa CDC 0509; RPMI): 4 µg/mL
- MIC (P. aeruginosa CDC 0509; stated in FIG. 5 legends (time-kill), printed P. Aeruginosa CDC 0451): 16 µg/mL
- MIC (S. epidermidis MMX 5129; CAMHB): 1 µg/mL
- MIC (S. epidermidis MMX 5129; RPMI): 0.12 µg/mL
- log-kill (S. aureus NRS 384 [3]; 0 min, 0.5 and 1× MIC in H2O, absence of sodium bicarbonate): ≥ 3 log
- log-kill (S. aureus NRS 384 [3]; after […], 1× MIC in PBS +/- sodium bicarbonate): ~3 log
- log-kill (S. aureus NRS 384 [3]; by […], 0.5 and 1× MIC in H2O, presence of sodium bicarbonate): ≥ 3 log
- killing (log) (E. Coli CDC 0451 [4]): > 3
- log killing (5 test isolates): Greater than 1 log
- log-kill (S. epidermidis MMX 8655): ~3 log
